We go through 21 molecules from PubChem BioAssay (NCI).

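Method: 48-hour compound exposure of cells in 96-well plates, five concentrations, linear interpolation of endpoints. Abbreviation: GI50, concentration required for 50% inhibition of growth. TGI: total growth inhibition.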

Some test systems named below: MDA-N; ACHN renal; SN12C renal; SNB-19 CNS; HT29 colon; OVCAR-3 ovarian; SK-MEL-2 melanoma.
Holding throughout (experiment): growth of human tumour cells (NCI), 48 h

For `CC1=C(c2ccc(C)cc2)NC(=S)C(C)C(c2ccc(C)cc2)=N1` (stereo unspecified), the TGI in the assay with MDA-N, in the assay on ACHN renal, with SN12C renal, with SNB-19 CNS and with HT29 colon was more than 100 µM in each case.

Take `CN(C)C(=O)C(F)(F)C(c1ccc(C(F)(F)F)cc1)C1C(=O)N(C)C(=O)N(C)C1=O` (stereo unspecified): the TGI in the assay on OVCAR-3 ovarian, in the assay with ACHN renal, in the assay with SNB-19 CNS and in the assay with SK-MEL-2 melanoma was more than 100 µM throughout.

Turning to `O=C1Cc2c(-c3ccccc3)cc(-c3ccc4ccccc4c3)nc2-c2ccccc2N1`, the TGI in the assay on OVCAR-3 ovarian is 27.6 µM; in the assay with MDA-N, more than 100 µM; in the assay with ACHN renal, more than 100 µM; in the assay with SN12C renal, 43.6 µM; in the assay with SNB-19 CNS, more than 100 µM; with SK-MEL-2 melanoma, more than 100 µM. The molecule further displayed a TGI with HT29 colon of 15.9 µM.

With `Cc1ccc(C2SC(N)=Nc3c2c(C)nn3C(=O)c2ccc(Cl)cc2)cc1` (stereo unspecified), the TGI with OVCAR-3 ovarian, in the assay on MDA-N, in the assay on ACHN renal, with SN12C renal, in the assay on SNB-19 CNS and in the assay with SK-MEL-2 melanoma was more than 10 µM each time. The same molecule registered a TGI in the assay with HT29 colon of more than 10 µM.

Take `O=C1c2cscc2C(=O)c2c(OCc3ccccc3)ccc(OCc3ccccc3)c21`: the TGI with OVCAR-3 ovarian, in the assay with MDA-N, with ACHN renal, in the assay on SN12C renal, in the assay with SNB-19 CNS and in the assay on HT29 colon was more than 100 µM in each case.

As to `N#Cc1nc(NC(=O)c2ccccc2)sc1N`, the TGI in the assay on OVCAR-3 ovarian, in the assay with MDA-N, in the assay with ACHN renal, with SN12C renal, in the assay with SNB-19 CNS and in the assay on SK-MEL-2 melanoma was more than 10 µM throughout. In the assay with HT29 colon, the TGI was more than 10 µM.

For `O=c1c2ccccc2n2n1Cc1ccccc1C2`, the TGI in the assay with OVCAR-3 ovarian, in the assay with MDA-N, in the assay with ACHN renal, in the assay with SN12C renal, in the assay with SNB-19 CNS and in the assay with HT29 colon was more than 100 µM each time.

On to `CCN(CC)c1nc(=O)c(C(=O)C(C)(C)C)c(C(C)(C)C)o1`, for which the TGI in the assay with MDA-N, in the assay with ACHN renal, in the assay with SN12C renal, with SNB-19 CNS, in the assay on SK-MEL-2 melanoma and in the assay with HT29 colon was more than 100 µM each time.

For `O=C1NCC2(CCNCC2)N1`, the TGI with ACHN renal, in the assay on SN12C renal, with SNB-19 CNS and in the assay on HT29 colon was more than 100 µM in each case.

Take `COC(=O)c1cn(CCCCO)nn1`: the TGI in the assay with MDA-N, with ACHN renal, in the assay on SN12C renal, in the assay on SNB-19 CNS, with SK-MEL-2 melanoma and in the assay with HT29 colon was more than 100 µM throughout.

Consider `OCCN1CCN(c2nc(Nc3ccc(-c4nc5ccccc5[nH]4)cc3)c3cn[nH]c3n2)CC1`, for which, in the assay on OVCAR-3 ovarian, the GI50 was 1.69 µM and the TGI was 3.28 µM. For the same molecule, in the assay on ACHN renal, the GI50 is 1.75 µM and the TGI is 3.16 µM.

In the case of `CCC(C)C(NC(=O)c1c2ccccc2nc2ccccc12)C(=O)O` (stereo unspecified), the TGI with OVCAR-3 ovarian, in the assay with ACHN renal, with SN12C renal, in the assay with SNB-19 CNS, in the assay with SK-MEL-2 melanoma and with HT29 colon was more than 100 µM throughout.

As to `ClCCCC1COc2ccccc2O1` (stereo unspecified), the TGI in the assay on OVCAR-3 ovarian, with MDA-N, with ACHN renal, in the assay with SN12C renal, with SNB-19 CNS and in the assay on HT29 colon was more than 100 µM each time.

Consider `N#CC1C(=O)NC2=C(CCOc3c2ccc2ccccc32)C1c1ccc(F)cc1` (stereo unspecified), for which the TGI with OVCAR-3 ovarian is 40.7 µM; with ACHN renal, 26.1 µM; in the assay on SN12C renal, 27.3 µM; in the assay on SNB-19 CNS, 52.7 µM; in the assay on SK-MEL-2 melanoma, more than 100 µM.

Regarding `NS(=O)(=O)c1ccc(N=Nc2nc3[nH]cnc(=S)c3[nH]2)cc1`, the TGI is more than 22.5 µM in the assay on OVCAR-3 ovarian; more than 38.9 µM with MDA-N; more than 100 µM in the assay with ACHN renal; more than 40.1 µM with SN12C renal; more than 100 µM in the assay on SNB-19 CNS; more than 68.2 µM in the assay on HT29 colon.

Consider `COC(=O)C1=C(OC(=O)/C(=C/c2c(F)cccc2F)c2ccccc2)C(C(=O)OC)[C@@]2(O)[C@@H](C(=O)OC)[C@H](C)C[C@@H]1[C@@H]2C(=O)OC` (stereo partly specified), for which the TGI with OVCAR-3 ovarian, in the assay on ACHN renal, with SN12C renal, with SNB-19 CNS, with SK-MEL-2 melanoma and in the assay with HT29 colon was more than 100 µM throughout.

With `Cc1cccc(Nc2nc(NNC(=O)Cc3ccccc3)nc(NNC(=O)c3ccncc3)n2)c1`, the TGI with MDA-N, with ACHN renal, in the assay on SN12C renal, with SNB-19 CNS and with HT29 colon was more than 10 µM throughout.

Turning to `CCCCC1=CC1(C#N)[N+](=O)[O-]` (stereo unspecified), the TGI with OVCAR-3 ovarian, in the assay on ACHN renal, with SN12C renal, in the assay on SNB-19 CNS and in the assay with HT29 colon was more than 100 µM in each case.

As for `c1ccc(C2=NN[C@H](c3cn(-c4ccccc4)nc3-c3ccccc3)C2)cc1`, the GI50 is 4.18 µM with SN12C renal, 5.05 µM in the assay on SNB-19 CNS, 30.2 µM in the assay with SK-MEL-2 melanoma and more than 100 µM in the assay with HT29 colon. The TGI in the assay with SN12C renal, in the assay with SNB-19 CNS, in the assay with SK-MEL-2 melanoma and in the assay with HT29 colon was more than 100 µM throughout.

On to `O=C(Nn1c(-c2ccccc2)nc2ccccc2c1=O)c1ccc(O)cc1`, for which the TGI in the assay on OVCAR-3 ovarian, in the assay on MDA-N, in the assay on ACHN renal, in the assay with SN12C renal, in the assay with SNB-19 CNS and in the assay with HT29 colon was more than 100 µM throughout.

`CCCCCCCCCCCCCCCCNc1ccc2c(c1)OCCOCCOCCOCCO2`: the TGI in the assay with OVCAR-3 ovarian amounted to 8.75 µM; with MDA-N, 12.8 µM; in the assay with SN12C renal, 10.5 µM; in the assay on SNB-19 CNS, 14.2 µM; with SK-MEL-2 melanoma, 4.44 µM; with HT29 colon it was 10.9 µM.
